In experiment [1] the target is T1, spermine oxidase (SMO) (Homo sapiens, UniProt Q9NWM0). It is filed as biochemical.
Experiment [2] has as its target T1, spermine oxidase (SMO). Kind of experiment: biochemical.

Among the data in publication PMC2810717 (Biochemistry, 2010) are Ki and Kd values, retold here.

T1 sequence (Q9NWM0 whole entry): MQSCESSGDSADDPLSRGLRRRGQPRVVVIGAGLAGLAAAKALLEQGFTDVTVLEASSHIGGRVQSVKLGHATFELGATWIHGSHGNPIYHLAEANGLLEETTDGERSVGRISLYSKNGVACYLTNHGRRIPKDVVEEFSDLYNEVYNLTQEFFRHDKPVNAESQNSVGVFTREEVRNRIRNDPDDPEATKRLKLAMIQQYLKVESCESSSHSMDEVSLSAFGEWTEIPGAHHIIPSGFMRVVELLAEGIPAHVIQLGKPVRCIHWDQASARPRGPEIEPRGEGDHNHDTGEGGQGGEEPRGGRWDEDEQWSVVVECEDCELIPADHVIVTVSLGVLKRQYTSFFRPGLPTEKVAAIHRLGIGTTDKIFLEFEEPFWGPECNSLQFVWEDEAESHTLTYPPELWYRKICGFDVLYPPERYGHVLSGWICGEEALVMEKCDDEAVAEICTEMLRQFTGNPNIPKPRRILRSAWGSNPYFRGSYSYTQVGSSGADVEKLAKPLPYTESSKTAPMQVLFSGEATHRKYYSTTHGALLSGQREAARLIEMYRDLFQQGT

On spermine oxidase (SMO) [1], `c1ccc(CNCCCCNCc2ccccc2)cc1` [DBDB, N,N’-dibenzylbutane-1,4-diamine] yielded a Ki of 320 ± 80 µM. On spermine oxidase (SMO) [1], `NCCCCNCCCN` [spermidine] came in with an inhibition constant (Ki) of 550 ± 20 µM.

In turn, `NCCCNCCCCNCCCN` [spermine] gave a dissociation constant Kd at spermine oxidase (SMO) [2] of 48 ± 8.2 µM.

As usually defined, the Ki is the dissociation constant of the complex between target and ligand, obtained from inhibition or displacement. Lower therefore signals higher affinity. The Kd is the free concentration of one partner at which half of the binding sites on the other are occupied at equilibrium, for simple one-to-one binding. Low readings indicate higher affinity, high ones lower affinity.
